Data taken from PubChem BioAssay (NCI).
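Five concentrations, 48 hours, 96-well plates. GI50 = concentration required for 50% inhibition of growth. Definition used: TGI = concentration required for complete inhibition of growth.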

Columns and labels:
Test in all cases: DTP human tumour cell line panel, 48 h
[1] = system: SR leukemia
[2] = system: MDA-MB-231 breast
[3] = system: MDA-MB-435
[4] = system: OVCAR-5 ovarian
[5] = system: SF-539 CNS
[6] = system: UACC-257 melanoma
[7] = system: HS 578T breast
[8] = system: CAKI-1 renal
[9] = system: K-562 leukemia
[10] = system: MALME-3M melanoma

SMILES | GI50 [1] [µM] | TGI [1] [µM] | GI50 [2] [µM] | TGI [2] [µM] | GI50 [3] [µM] | TGI [3] [µM] | GI50 [4] [µM] | TGI [4] [µM] | GI50 [5] [µM] | TGI [5] [µM] | GI50 [6] [µM] | TGI [6] [µM] | GI50 [7] [µM] | TGI [7] [µM] | GI50 [8] [µM] | TGI [8] [µM] | GI50 [9] [µM] | TGI [9] [µM] | TGI [10] [µM] | GI50 [10] [µM]
O=S(=O)(Nc1ncccn1)c1ccc(N=Nc2ccc(O)c3ncccc23)cc1 | 4.62 | 63 | 15.9 | 97.1 | 5.31 | 21.8 | 29.7 | 89.2 | 4.67 | 21.9 | 14.8 | 45.2 | 3 | 13.1 | 3.82 | 21 | 3.23 | 61.2 |  | 
O=C(Nc1ccc(Cl)cc1Cl)c1ccc(NC2=C(Cl)C(=O)N(Cc3ccccc3)C2=O)cc1 | 1.35 | 3.12 | 17.4 | 31.2 | 32.5 | > 100 |  |  | 18.9 | 33.1 | 26.2 | 71.8 | 23.5 | 47 | 26.4 | 63.5 | 6.24 | 18.4 |  | 
CC(C)=CCN=C(N)N |  | 83.6 |  | > 100 |  | > 100 |  |  |  | > 100 |  | > 100 |  | > 100 |  | > 100 |  |  | > 100 | 
COc1cc(C(=O)OCCCCCCCCCCC[P+](c2ccccc2)(c2ccccc2)c2ccccc2)ccc1O | 0.364 | 2.31 | 0.301 | 1.16 | 0.312 | 1.24 | 1.59 | 3.25 |  |  | 0.451 | 1.54 | 0.549 | 5.25 | 1.64 | 3.18 |  |  |  | 
COc1ccc(-c2[nH]ncc2-c2cc3c(c(OC)c2)OCC(=O)N3)cc1 | 0.285 | > 47.7 | 1.21 | > 100 |  |  | 2.17 | > 100 | 0.372 | 2.16 | 3.23 | > 72.4 | 0.298 | 2.24 | 0.556 | > 63.3 | 0.309 | > 100 | 99.1 | 2.75
Nc1ncnc2c1ncn2C1OC(COP(=O)(O)CP(=O)(O)O)C(O)C1O (stereo not drawn) |  | > 100 |  |  |  | > 100 |  | > 100 |  | > 100 |  | > 100 |  | > 100 |  | > 100 |  | > 100 | > 100 | 
CCSc1nnc2c(-c3ccccc3)n[nH]c2n1 |  | > 100 |  | > 100 |  | > 100 |  | > 100 |  | > 100 |  | > 100 |  | > 100 |  | > 100 |  | > 100 |  | 
COc1ccc(C#Cc2ccccc2C#CCCCCO)cc1 |  |  | 17.3 | 32.2 | 21.1 | 38.9 | 18.7 | 37.6 | 22.6 | 42.8 | 19.5 | 35.8 | 28.3 | 65.1 | 22.3 | 40.3 | 21.9 | 43.9 | 45.4 | 23
N#Cc1cc(C#N)c(Cl)nc1N |  | > 10 |  |  |  | > 10 |  |  |  | > 10 |  |  |  | > 10 |  |  |  | > 10 | > 10 | 
Cc1[nH]ncc1-c1cc2nc(C3CC4CCN3CC4)[nH]c(=O)c2s1 (stereo not drawn) |  |  | 4.89 | > 100 | 4.45 | 30 | 3.33 | > 100 | 1.47 | 7.74 | 5.79 | 84 | 3.87 | > 100 | 2.43 | > 100 | 6.54 | > 100 | 74 | 6.02
O=[N+]([O-])c1ccc(Nc2ccccc2-c2ccccc2)c2nonc12 |  |  | 14.5 | 31.2 | 13.9 | 45.9 | 22.4 | 62.9 | 17 | 39.9 | 12.3 | 79.1 | 15.2 | 62.8 | 12.3 | 50.2 | 18 | > 100 | 29.1 | 5.2
Cc1c2cc[nH]c(=O)c2c(C)c2c1[nH]c1cc(OCCN3CCN(C)CC3)ccc12 | 0.314 | 12 | 0.783 | 3.19 | 1.06 | 2.43 | 0.944 | 11.6 | 1.31 | 2.77 | 2.51 | 7.72 | 2.01 | 9.23 | 2.17 | 9.55 | 0.949 | 10.7 |  | 
NS(=O)(=O)c1ccc(NC(=O)c2ccc(NC3=C(Cl)C(=O)N(Cc4ccccc4)C3=O)cc2)cc1 |  |  | 2.65 | 8.11 | 10.6 | 26.5 | 15.5 | 33.1 | 4.59 | 22 | 18.2 | 56.7 | 1.64 | 4.5 | 14.8 | 29.3 | 3.26 | > 100 | > 100 | 49.4
